Like-named read-outs stand apart in the source and are kept apart here.

Data set [1] in a line: Thermal analysis (TGA/DTA). Type of data set: physicochemical. The protocol: Thermal analysis was carried out with a Linseis STA 1600 simultaneous thermal analyzer to determine simultaneous changes of weight (TGA signal) and caloric measurable transformations (DTA signal) in a temperature range between r.t. and 300° C.
The conditions of data set [2]: mean particle diameter.
Data set [3] can be described thus: pH measurement of 0.1 M aqueous solutions. Type of data set: physicochemical. The note with it: r.t.; for pH values compound: 0.1 M in millipore water, average of at least three measurements. The source says:
For the pH measurements, a Seven2Go portable pH meter S2 (pH measuring-range: −2 to 20; resolution: 0.01) with an InLab Ultra Micro-ISM electrode (measuring range: pH −1 to pH 11; low temperature membrane glass type; ceramic diaphragm; reference system with Ag^+ ion trap by argenthal) as well as with an in-lab routine pH electrode (measuring range: pH 0 to pH 14; ceramic diaphragm; reference system with Ag^+ ion trap by argenthal) from Mettler-Toledo AG (Analytical, Switzerland) was used.
For sake of comparability, compounds of the same loading ratio n=2, which is 2:1 of the loaded carboxylic acid with respect to the carrier carboxylic acid, were selected for this analysis. […] The analytes were dissolved in millipore water, stirred for 5 minutes in an airtight vial to perform the pH measurements thereafter at r.t. All measurements were performed at 0.1 molar (M) concentration of the samples, which is 0.1 mol per liter (mol/L).
For sake of reliability, every result stated is the average of at least three single measurements. […] The numbers 1-73 (nr., first row) are used as an assignment for the 73 pairs, comprising the compound of invention (third row), the corresponding carrier carboxylic acid (fourth row) and the loaded carboxylic acid (fifth row), as used in the FIG. 6.

A further data set concerns yeast/fungi. The data set is described as follows: Silage preservation: yeast/fungi count. The note with it: forage, 0.5 wt % topical, r.t., 31 days. The protocol:
(§1) All tests were conducted under equal conditions. […] The additives were dosed at 0.5 wt % and were applied topically to the samples. […] The preservation effectiveness was established by testing for total bacteria count (TBC), yeast/fungi count and Enterobacteria/β-Glucoronidase-positive-Enterobacteria (E/β).

The test system of data set [4] is total bacteria count (TBC). The note with it: forage, 0.5 wt % topical, r.t., 31 days. The protocol: as §1
Data set [5] deals with Enterobacteria/β-Glucoronidase-positive-Enterobacteria (E/β). Kind of data set: Silage preservation: E/β count. The settings on record: forage, 0.5 wt % topical, r.t., 31 days. The procedure: as §1
The nature of data set [6]: Application as additive in liquid shaving soap. An excerpt:
The mix was stirred with hard soap pieces remaining undissolved and placed for 50 seconds at 600 W in a microwave oven. […] The mixture was placed for 80 seconds in a microwave at 600 W. Thereafter the resulting mixture was hand-blended and filled into a jar for testing and storage.

On to `CC(=O)O.CC(=O)O.CC(=O)[O-].CC(=O)[O-].[Ca+2]` [CaAc-HAc [2], calcium acetate with loaded acetic acid], for which the “thermal stability of the carrier carboxylic acid salt” value in data set [1] (TGA/DTA between r.t. and 300° C.) was at most 300 °C. In data set [1] (partially hydrated sample prior drying, 25-135° C.), the “first loss of weight (TGA)” value is −7.0 wt % of total weight. The “second stage of weight-loss (TGA)” value in data set [1] (partially hydrated sample prior drying, 135-300° C.) was 11.7 wt % of the total weight. For the same compound, the “overall loss of weight (TGA)” value in data set [1] (partially hydrated sample, between r.t. and 300° C.) amounted to 18.74%. Besides, the dav in data set [2] was 221 μm; in data set [2] (listed as CaAc—HAc [2]) it was “approximately 220 μm”. Also, in data set [3], the pH values compound is listed as 5.05.

On to `O=CO.O=CO.O=C[O-].O=C[O-].[Ca+2]` [CaFo-HFo [2], calcium formate with loaded formic acid], for which, in the data set on yeast/fungi, the yeast count result was “dramatically reduce”. For the same compound, in data set [4], the TBC result is recorded as “dramatically reduce”. For the same compound, the E/β count result in data set [5] is on record as “dramatically reduce”. Also, the pH values compound in data set [3] stood at 5.19.

As for `CCC(=O)O.CCC(=O)O.O=C[O-].O=C[O-].[Ca+2]` [CaFo-HProp [2], calcium formate with loaded propionic acid], in the data set on yeast/fungi, the growth of yeasts result is on record as “completely inhibit” and the yeast count result is on record as “dramatically reduce”. Further, the TBC entry in data set [4] is listed as “dramatically reduce”. In data set [5], the E/β count result is given as “dramatically reduce” and the “growth of β-Glucoronidase-positive-Enterobacteria (especially E. coli)” value is “completely inhibit”. Besides, in data set [3], the pH values compound worked out at 5.79.

With `CC(O)C(=O)O.CC(O)C(=O)O.O=C([O-])c1ccccc1O.O=C([O-])c1ccccc1O.[Ca+2]` [CaSal-HLac [2], calcium salicylate with loaded lactic acid], in data set [6], the “stability (>24 h)” value is “yes”. The compound further showed a pH values compound in data set [3] of 3.43.

For the compound `CC(=O)O.CCC(=O)O.O=C([O-])C(O)C(O)C(=O)[O-].[Ca+2]` (stereo not shown) [CaT-HAc-HProp [1,1], calcium tartrate with loaded acetic acid and propionic acid], the dav is 220 μm in data set [2] and “approximately 220 μm” in data set [2] (listed as CaT-HAc—HProp [1,1]). The pH values compound in data set [3] amounted to 3.63. Moreover, the pH value in data set [3] (0.1 M, compound made via in-situ process) is listed as 3.63.

Consider `O=C([O-])CC(O)(CC(=O)[O-])C(=O)[O-].O=C([O-])CC(O)(CC(=O)[O-])C(=O)[O-].[Ca+2].[Ca+2].[Ca+2]` [calcium citrate], for which the “stability (>24 h)” value in data set [6] (liquid shaving soap, additive 1 or 2 % wt) is on record as “yes”.

As for `O=C(O)CC(O)C(=O)O` (stereo not shown) [malic acid], in data set [6], the “stability (>24 h)” value is recorded as “no”.
